pIC50: −log10 of the molar value. *1 amine or outer side, *2 acyl side, *3 side chain or, on linkers, in order; H or OH if unused. Where a SMILES comes first, the peptide text is derived from it. Bridges are numbered along the chain shown (N, C = ends). [ ]: non-standard residue; d: D form. The star is where a group is joined. ξ: configuration not given here. Phe(4-COOH) = N[C@@H](Cc1ccc(C(=O)O)cc1)C(=O)O; Bip = N[C@@H](Cc1ccc(-c2ccccc2)cc1)C(=O)O; Phe(3-Me) = Cc1cccc(C[C@H](N)C(=O)O)c1; γGlu = O=C(O)[C@H](CCC(=O)[*:2])N[*:1]; Val(3-OH) = CC(C)(O)[C@H](N)C(=O)O; hArg = N=C(N)NCCCC[C@H](N)C(=O)O; Cha = N[C@@H](CC1CCCCC1)C(=O)O; Cit = NC(=O)NCCC[C@H](N)C(=O)O; Ile(3ξ) = CCC(C)[C@H](N)C(=O)O; Thr(3ξ) = CC(O)[C@H](N)C(=O)O; hSer = N[C@@H](CCO)C(=O)O; Carboxymethyl = O=C(O)C*; NMeA = CN[C@@H](C)C(=O)O; Orn = NCCC[C@H](N)C(=O)O; Aun = NCCCCCCCCCCC(=O)O; Dab = NCC[C@H](N)C(=O)O; AEEA = NCCOCCOCC(=O)O
Each compound was assayed against T1, PD-1/PD-L1 interaction (PE-labeled human PD-L1-Ig binding to Jurkat cell line over-expressing human PD-1) (Homo sapiens, UniProt Q15116) (assay: Jurkat-PD-1 Cell Binding High-Content Screening Assay (CBA)). Settings: Jurkat-hPD-1 cells, PE-labeled PD-L1-Ig 20 nM final; read-out: Jurkat HPD1 PDL1 IC50.
T1 construct: expressed in transfected cells; host or cells: Jurkat
T1 sequence (Q15116 25-288): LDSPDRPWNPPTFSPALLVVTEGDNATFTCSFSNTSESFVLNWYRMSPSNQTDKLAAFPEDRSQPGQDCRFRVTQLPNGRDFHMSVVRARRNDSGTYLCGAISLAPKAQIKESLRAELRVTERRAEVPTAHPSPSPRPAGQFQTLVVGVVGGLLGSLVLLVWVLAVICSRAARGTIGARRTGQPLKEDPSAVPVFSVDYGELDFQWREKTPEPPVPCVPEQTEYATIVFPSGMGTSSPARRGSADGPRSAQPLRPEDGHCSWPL
Procedure, shortened: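 Compound is added first to the PD-1-expressing Jurkat cells and held 2 h at 37 °C in serum-containing DMEM. The fluorescent PD-L1 fusion follows at 20 nM final for 1 h. Fixed, Hoechst-stained cells are then imaged for bound label.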

| Compound | pIC50 |
| --- | --- |
| Cc1cccc(C[C@@H]2NC(=O)[C@H](CC(=O)O)NC(=O)[C@H](Cc3ccc(C(=O)O)cc3)NC(=O)[C@H](Cc3ccc(OCC(=O)O)cc3)NC(=O)CSC[C@@H](C(=O)NCC(=O)NCCOCCOCC(=O)NCCCCCCCCCCC(=O)O)NC(=O)[C@H](CO)NC(=O)[C@H](C(C)C)NC(=O)[C@H](CC(C)C)NC(=O)[C@H](CC(N)=O)NC(=O)[C@@H](CC(C)C)NC(=O)[C@H](C)N(C)C(=O)[C@H](C(C)C)NC(=O)[C@H](Cc3ccc(-c4ccccc4)cc3)NC(=O)[C@H](CC(C)C)NC2=O)c1 [Example 1011] ({CH2CO}-Y(Carboxymethyl)[Phe(4-COOH)]D[Phe(3-Me)]L[Bip]V[NMeA][dL]NLVSCG[AEEA][Aun]-OH; thioether N-14) | 7.61 |
| Cc1cccc(C[C@@H]2NC(=O)[C@H](CC(=O)O)NC(=O)[C@H](Cc3ccc(OCC(=O)O)cc3)NC(=O)[C@H]([C@@H](C)O)NC(=O)CSC[C@@H](C(=O)N[C@@H](CCN)C(=O)N[C@@H](Cc3cn(CC(=O)NCCCNC(=O)c4cc(F)c(F)c(F)c4)nn3)C(=O)NCCCCCCCCCCC(=O)O)NC(=O)[C@H]([C@@H](C)O)NC(=O)[C@H](C(C)C)NC(=O)[C@H](CC3CCCCC3)NC(=O)[C@H](CCN)NC(=O)[C@@H](CC(C)C)NC(=O)[C@H](C)N(C)C(=O)[C@H](Cc3ccc(OCC(=O)O)cc3)NC(=O)[C@H](Cc3ccc(-c4ccccc4)cc3)NC(=O)[C@H](Cc3ccc(C(=O)O)cc3)NC2=O)c1 [Example 1241] | 7.63 |
| CC(C)C[C@H]1NC(=O)[C@H](C)N(C)C(=O)[C@H](C(C)C)NC(=O)[C@H](Cc2ccc(-c3ccccc3)cc2)NC(=O)[C@H](C(C)C)NC(=O)[C@H](Cc2c[nH]c3ccccc23)NC(=O)[C@H](CC(=O)O)NC(=O)[C@H](CCCCNC(=N)N)NC(=O)[C@H](Cc2ccc(OCC(=O)O)cc2)NC(=O)CSC[C@@H](C(=O)N[C@@H](CCCN)C(=O)NCCOCCOCC(=O)NCCCCCCCCCCC(=O)O)NC(=O)[C@H](C(C)O)NC(=O)[C@H](C(C)C)NC(=O)[C@H](CC2CCCCC2)NC(=O)[C@H](CCN)NC1=O (stereo partly drawn) [Example 2111] ({CH2CO}-Y(Carboxymethyl)[hArg]DWV[Bip]V[NMeA][dL][Dab][Cha]V[Thr(3ξ)]C[Orn][AEEA][Aun]-OH; thioether N-14) | 7.52 |
| CCC(C)[C@@H]1NC(=O)[C@H](Cc2ccc(-c3ccccc3)cc2)NC(=O)[C@H](CC(C)C)NC(=O)[C@H](Cc2c[nH]c3ccccc23)NC(=O)[C@H](CC(=O)O)NC(=O)[C@H](Cc2ccc(OCC(=O)O)cc2)NC(=O)[C@H](CCCCNC(=N)N)NC(=O)CSC[C@@H](C(=O)NCCOCCOCC(=O)N[C@@H](CCC(=O)NCCCCCCCCCCC(=O)O)C(=O)O)NC(=O)[C@H](CO)NC(=O)[C@H](C(C)C)NC(=O)[C@H](CC(C)C)NC(=O)[C@H](CCN)NC(=O)[C@@H](CC(C)C)NC(=O)[C@H](C)N(C)C1=O (stereo partly drawn) [Example 2044] ({CH2CO}-[hArg]Y(Carboxymethyl)DWL[Bip][Ile(3ξ)][NMeA][dL][Dab]LVSC[AEEA][γGlu][Aun]-OH; thioether N-14) | 7.17 |

The next lines start with the values.

| pIC50 | Compound |
| --- | --- |
| 7.89 | CCC(C)[C@@H]1NC(=O)[C@H](Cc2ccc(-c3ccccc3)cc2)NC(=O)[C@H](C(C)C)NC(=O)[C@H](Cc2cccc(C)c2)NC(=O)[C@H](CC(=O)O)NC(=O)[C@H](Cc2ccc(OCC(=O)O)cc2)NC(=O)[C@H](CCCNC(=N)N)NC(=O)CSC[C@@H](C(=O)N[C@H](CC(N)=O)C(=O)NCCCCCCCCCCC(=O)O)NC(=O)[C@H](CCCNC(N)=O)NC(=O)[C@H](C(C)C)NC(=O)[C@H](CC2CCCCC2)NC(=O)[C@H](CCN)NC(=O)[C@@H](CC(C)C)NC(=O)[C@H](C)N(C)C1=O (stereo partly drawn) [Example 2288] ({CH2CO}-RY(Carboxymethyl)D[Phe(3-Me)]V[Bip][Ile(3ξ)][NMeA][dL][Dab][Cha]V[Cit]C[dN][Aun]-OH; thioether N-14) |
| 8.01 | Cc1cccc(C[C@@H]2NC(=O)[C@H](CC(=O)O)NC(=O)[C@H](Cc3ccc(OCC(=O)O)cc3)NC(=O)[C@H](CCCNC(=N)N)NC(=O)CSC[C@@H](C(=O)N[C@@H](CCN)C(=O)NCCCCCCCCCCC(=O)O)NC(=O)[C@H](C(C)O)NC(=O)[C@H](C(C)C)NC(=O)[C@H](CC3CCCCC3)NC(=O)[C@H](CCN)NC(=O)[C@@H](CC(C)C)NC(=O)[C@H](C)N(C)C(=O)[C@H](CCC(N)=O)NC(=O)[C@H](Cc3ccc(-c4ccccc4)cc3)NC(=O)[C@H](C(C)C)NC2=O)c1 (stereo partly drawn) [Example 2233] ({CH2CO}-RY(Carboxymethyl)D[Phe(3-Me)]V[Bip]Q[NMeA][dL][Dab][Cha]V[Thr(3ξ)]C[Dab][Aun]-OH; thioether N-14) |
| 7.94 | CC(=O)NCCCC[C@@H]1NC(=O)[C@H](C(C)C)NC(=O)[C@H](CC2CCCCC2)NC(=O)[C@H](CCN)NC(=O)[C@@H](CC(C)C)NC(=O)[C@H](C)N(C)C(=O)[C@H](CCO)NC(=O)[C@H](Cc2ccc(-c3ccccc3)cc2)NC(=O)[C@H](C(C)C)NC(=O)[C@H](Cc2cccc(C)c2)NC(=O)[C@H](CC(=O)O)NC(=O)[C@H](Cc2ccc(OCC(=O)O)cc2)NC(=O)[C@H](Cc2ccc(OCC(=O)O)cc2)NC(=O)CSC[C@@H](C(=O)N[C@@H](CCN)C(=O)NCCCCCCCCCCC(=O)O)NC1=O [Example 2221] ({CH2CO}-Y(Carboxymethyl)Y(Carboxymethyl)D[Phe(3-Me)]V[Bip][hSer][NMeA][dL][Dab][Cha]VK(Ac)C[Dab][Aun]-OH; thioether N-14) |
| 7.70 | Cc1cccc(C[C@@H]2NC(=O)[C@H](CC(=O)O)NC(=O)[C@H](Cc3ccc(C(=O)O)cc3)NC(=O)[C@H](Cc3ccc(OCC(=O)O)cc3)NC(=O)CSC[C@@H](C(=O)N[C@@H](CCN)C(=O)NCCCCCCCCCCC(=O)O)NC(=O)[C@H](CCCNC(N)=O)NC(=O)[C@H](C(C)C)NC(=O)[C@H](CC3CCCCC3)NC(=O)[C@H](CCN)NC(=O)[C@@H](CC(C)C)NC(=O)[C@H](C)N(C)C(=O)[C@H](C(C)C)NC(=O)[C@H](Cc3ccc(-c4ccccc4)cc3)NC(=O)[C@H](CC(C)C)NC2=O)c1 [Example 2294] ({CH2CO}-Y(Carboxymethyl)[Phe(4-COOH)]D[Phe(3-Me)]L[Bip]V[NMeA][dL][Dab][Cha]V[Cit]C[Dab][Aun]-OH; thioether N-14) |

Same assay, conditions: PE-labeled PD-L1-Ig 20 nM final, Jurkat-hPD-1 cells; read-out: Jurkat HPD1 PDL1 IC50

| pIC50 | Compound |
| --- | --- |
| 7.79 | Cc1cccc(C[C@@H]2NC(=O)[C@H](CC(=O)O)NC(=O)[C@H](Cc3ccc(OCC(=O)O)cc3)NC(=O)[C@H](C(C)C)NC(=O)CSC[C@@H](C(=O)N[C@@H](CCN)C(=O)NCCOCCOCC(=O)NCCCCCCCCCCC(=O)O)NC(=O)[C@H](CCC(=O)O)NC(=O)[C@H](C(C)(C)O)NC(=O)[C@H](CC3CCCCC3)NC(=O)[C@H](CCN)NC(=O)[C@@H](CC(C)C)NC(=O)[C@H](C)N(C)C(=O)[C@H](Cc3ccc(C(=O)O)cc3)NC(=O)[C@H](Cc3ccc(-c4ccccc4)cc3)NC(=O)[C@H](Cc3ccc(C(=O)O)cc3)NC2=O)c1 [Example 2511] ({CH2CO}-VY(Carboxymethyl)D[Phe(3-Me)][Phe(4-COOH)][Bip][Phe(4-COOH)][NMeA][dL][Dab][Cha][Val(3-OH)]EC[Dab][AEEA][Aun]-OH; thioether N-14) |
